How the values were obtained:
[1] = Solubility in water at 25° C. of the poorly water-soluble raw material; details: raw material (poorly water-soluble substance) of the composition
[2] = Transferability of nobiletin into blood circulation during oral administration to mice; format: in vivo; details: male, C57BL/6J, mouse, 200 mg/kg, plasma
Description: [Evaluation of Transferability of Nobiletin into Blood Circulation During Oral Administration to Mice]
C57BL/6J mice (male, 6 week-old) were purchased from CLEA Japan, Inc. The mice were habituated to the environment for one week or more, and were fed to a test. Each of the test groups consisted of 8 mice, which was believed to be the minimum number required to ensure the statistical significance of the test system.
Mice were bred in the facility for one week under ad libitum feeding of solid food (CE-s), and the test was performed using the mice. The mice were fasted for 16 hours, and blood was initially collected from the orbital sinus of each mouse under isoflurane anesthesia (heparin-treated micro hematocrit blood collection tube, manufactured by VITREX Medical A/S). Each sample solution was then administrated into the stomach of the mice at a dose of 200 mg/kg weight per mouse using a probe. […]
The collected blood samples were centrifuged at 12,000 rpm for 10 minutes, and 30 μL of plasma in each sample was recovered into an Eppendorf tube. […] The nobiletin concentration in the plasma was measured by LC-MS/MS.
30 μL of acetonitrile was added to 30 μL of the recovered plasma, was stirred with a vortex mixer for 5 seconds, and was centrifuged at 12,000 rpm for 15 minutes at room temperature. […] The nobiletin concentration was then measured by LC-MS/MS.

Structure (SMILES) | Solubility in water at 25° C. [1] | AUC ([2]; read-out: AUC (area under the blood concentration transition curve) (converted)) | Cmax ([2]; read-out: Cmax (maximum blood concentration of nobiletin))
O=c1oc2c(O)c(O)cc3c(=O)oc4c(O)c(O)cc1c4c23 [Ellagic acid, Ellagic acid dihydrate] | 4 ppm |  | 
COc1ccc([C@@H]2CC(=O)c3c(O)cc(O[C@@H]4O[C@H](CO[C@@H]5O[C@@H](C)[C@H](O)[C@@H](O)[C@H]5O)[C@@H](O)[C@H](O)[C@H]4O)cc3O2)cc1O [Hesperidin] | 0.5 ppm |  | 
COc1ccc(-c2cc(=O)c3c(OC)c(OC)c(OC)c(OC)c3o2)cc1OC [Nobiletin, 3′,4′,5,6,7,8-hexamethoxyflavone] | 1 ppm | 5380 ng·h/mL | 3700 ng/mL
